The subject of the assay is CEM cells HIV-1 protection, formazan growth assay. The assay is described as follows: NCI AIDS Antiviral Assay. The note with it: for IC50: measured here: growth of uninfected CEM cells. Put shortly: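 Five concentrations of each compound were applied to infected and uninfected human CEM cells. Protection from HIV-1 was judged from growth measured with a soluble formazan assay.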

Here are results for 67 compounds from PubChem BioAssay AID179 (DTP/NCI, 2004).

Values joined by “and” are separate entries in the source; they are usually repeats but may differ in a detail not shown here. Equal values may be shown once. Active and inactive are the calls of the source.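 How the source made its calls: active means compounds giving half or more protection of infected cells from virus-caused growth loss, again on retest; inactive means the rest.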 Where a SMILES comes first, the peptide text is derived from it. The star is where a group is joined. Boc = CC(C)(C)OC(=O)*

For orientation: EC50 means the concentration at which the effect is half-maximal. One may read the IC50 as the midpoint of a concentration-inhibition curve. Low values mean inhibition by little substance, high ones a need for much substance.

Regarding `COC(=O)/C([Se]c1c(C)cc(C)cc1C)=C(/[Se]c1c(C)cc(C)cc1C)C(=O)OC`, the result was inactive.
Regarding `N=C(N)SCc1c2ccccc2c(CSC(=N)N)c2ccccc12`, the EC50 was over 20 µM and the IC50 came out at 3.16 µM.
For `COc1ccc(-c2cc(-c3ccco3)c(C#N)c(=O)n2C2OC(OC(=O)c3ccccc3)C(OC(=O)c3ccccc3)C2OC(=O)c2ccccc2)cc1` (configuration not stated) the same measures were over 7.24 µM and over 7.24 µM.
Taken in the same sequence, the figures for `Cc1cc(=O)cc2sc3cc(Cl)ccc3nc1-2` were over 10.5 µM and over 10.5 µM.
On to `CCCCCCCCCCCCCCCCCCNc1nc(=O)n(C2CC(O)C(COP(=O)(O)OCC3CCC(n4ccc(N)nc4=O)O3)O2)cc1F` (configuration not stated), for which the EC50 was 1.51 µM and the 50% inhibitory concentration (IC50) worked out at 2.04 µM.
With `Cc1ccc(S(=O)(=O)SCc2ccccc2)cc1`, the EC50 was over 67.6 µM and the IC50 worked out at 5.62 µM.
Taken in the same sequence, the figures for `CCCCCC(C/C=N/N(C)C)C(O)(C(F)(F)F)C(F)(F)F` (configuration not stated) were over 200 µM and 14.5 µM.
Taken in the same sequence, the figures for `COc1ccc(/C=C/C(=N/NC(=O)N/N=C(/C=C/c2ccc(OC)cc2)C(C)C)C(C)C)cc1` were over 200 µM and 37.2 µM.
For `CC=C=CCN(C)Cc1ccccc1`, the EC50 is over 324 µM and the half-maximal inhibitory concentration (IC50) is over 324 µM.
Regarding `C=C(C)C1CC2=C(O1)C(=O)c1ccccc1C2=O` (configuration not stated), the EC50 is over 200 µM and the IC50 is 2 µM.
For `CCN(CC)CC(=N)N(CC)c1ccccc1`, the EC50 is over 417 µM and the IC50 stood at 195 µM.
Taken in the same sequence, the figures for `CC1=CC2OC3CC4OC(=O)/C=C/C=C/C(C(C)O)OCC(O)C(C)CC(=O)OCC2(CC1O)C4(C)C31CO1` (configuration not stated) were over 0.2 µM and 0.0631 µM.
Consider `COc1ccc2nc3cc(Cl)ccc3c(NCCCNCCCNc3c4ccc(Cl)cc4nc4ccc(OC)cc34)c2c1`, for which the EC50 is over 2 µM and the 50% inhibitory concentration (IC50) came to 0.0148 µM.
Taken in the same sequence, the figures for `Cn1cnc2[nH]c(=O)n(O)c(=O)c21` were over 200 µM and 35.5 µM.
In the case of `O=C(c1cccs1)N1CCCN(C(=O)c2cccs2)C1=S`, the EC50 is over 200 µM and the IC50 is over 200 µM.
Consider `CCOc1cc2c(cc1O)/C(=N\O)C[C@@H]1[C@@H]2CC[C@]2(C)[C@@H](O)CC[C@@H]12`, for which the EC50 was over 200 µM and the IC50 was 0.0631 µM.
Taken in the same sequence, the figures for `CC(c1ccc2c(c1)CCC1C2CC2OC23CC=CC(=O)[C@]13C)C1C[C@]2(C)O[C@]2(C)[C@H](O)O1` (some centres not stated) were over 200 µM and 45.7 µM.
For `N/C(=N\N=C\c1ccc2c(c1)OCO2)NO` the same measures were over 200 µM and 105 µM.
On to `Cc1ccnc2c1C(=O)C(=O)C=C2N1CCCC1`, for which the outcome was inactive.
Turning to `CN1COCN=C1NC#N`, the EC50 is over 631 µM and the concentration for half-maximal inhibition (IC50) was over 631 µM.
For `CCOC(=O)C1=NN(c2ccccc2)C(=O)/C1=C/N1C(=O)/C(=C/c2ccc([N+](=O)[O-])cc2)SC1=S`, the EC50 was over 200 µM and the half-maximal inhibitory concentration (IC50) stood at 23.4 µM.
For `CC[C@@H](C)[C@H]([C@H](CC(=O)N1CCC[C@@H]1[C@@H](OC)[C@H](C)C(=O)N[C@H](Cc1ccccc1)c1nccs1)OC)N(C)C(=O)[C@H](NC(=O)[C@@H](C(C)C)N(C)C)C(C)C` the same measures were over 316 µM and 0.1 µM.
As for `COC(=O)C(Cc1ccccc1)NC(=O)C(CS)NC(=O)OC(C)(C)C` (stereo not drawn) (Boc-Cys-Phe-OMe; configuration not given here), the EC50 was over 200 µM and the 50% inhibitory concentration (IC50) came to 9.55 µM.
Consider `Cc1ccc(NC(=O)C(=O)CC(=O)c2c(C)n([O-])c3ccccc3[n+]2=O)cc1C`, for which the EC50 was over 64.6 µM and the half-maximal inhibitory concentration (IC50) was over 64.6 µM.
With `Cc1nnc2scnn12`, the outcome was inactive.
As for `Cc1cc(C)c(C2[C@H]3C(=O)N(c4ccc(Cc5ccc(N6C(=O)[C@@H]7ON(c8ccccc8)C(c8c(C)cc(C)cc8C)[C@@H]7C6=O)cc5)cc4)C(=O)[C@H]3ON2c2ccccc2)c(C)c1` (some centres not stated), the EC50 was over 22.4 µM and the IC50 was over 22.4 µM.
As to `COC(=O)c1ccccc1NC(=NC1CCCCCC1)NS(=O)(=O)c1ccc(C)cc1`, the EC50 is over 200 µM and the concentration for half-maximal inhibition (IC50) is over 200 µM.
For the compound `CC(C)(C)C(=O)C1CC(=O)c2ccccc2C1=O` (configuration not stated), the EC50 is over 29.5 µM and the IC50 was over 29.5 µM.
`O=c1cc(NNc2ccc3ccccc3c2)[nH]c(=S)[nH]1`: the EC50 is over 200 µM and the IC50 was 38.9 µM.
On to `CN(C)C1C(=O)C(C(=O)NCNCCCO)=C(O)C2(O)C(=O)C3=C(O)c4c(O)cccc4C(C)(O)C3CC12` (configuration not stated), for which the EC50 was over 204 µM and the half-maximal inhibitory concentration (IC50) is over 100 µM.
For `Cc1ccc(S(=O)(=O)Oc2nc3ccccc3nc2N(S(=O)(=O)c2ccc(C)cc2)S(=O)(=O)c2ccc(C)cc2)cc1` the same measures were over 200 µM and 17.4 µM.
For `CCCCN(CCCC)CCNc1ccc(Cl)c2oc3cc(C)ccc3c(=O)c12` the same measures were over 21.9 µM and over 21.9 µM.
`COC(=O)CCC(=O)CC(=O)C1=NS(=O)(=O)c2nc(S(N)(=O)=O)c(Cl)cc2N1`: the EC50 was 0.38 µM and the IC50 was found to be 550 µM.
With `C=C1C[C@](OC)([C@H](O)C(=O)N[C@@H](OC)[C@@H]2C[C@@H](O)C(C)(C)[C@@H](C[C@@H](COC)OC)O2)O[C@H](C)[C@@H]1C`, the outcome was inactive.
As for `CC1c2c(cc(OC(=O)c3cccc(S(=O)(=O)F)c3)nc2OC(=O)c2cccc(S(=O)(=O)F)c2)C(=O)N1Cc1ccccc1` (configuration not stated), the EC50 is over 11.2 µM and the IC50 is 1.86 µM.
For `N#Cc1c(NC(=S)Nc2ccc(Cl)cc2)sc2c1CCCC2`, the EC50 was over 200 µM and the concentration for half-maximal inhibition (IC50) was over 200 µM.
Regarding `O=S(=O)(CCCCl)SCCCCl`, the EC50 was over 145 µM and the IC50 is 20 µM.
As to `COc1cccc(C=C2N=C(c3ccccc3)N(n3c(-c4ccccc4)nc4ccccc4c3=O)C2=O)c1`, the EC50 is over 200 µM and the half-maximal inhibitory concentration (IC50) is 37.2 µM.
Taken in the same sequence, the figures for `CN1C(=O)CC2(C)C1=CCc1scnc12` (configuration not stated) were over 200 µM and over 200 µM.
Taken in the same sequence, the figures for `O=C1NS(=O)(=O)C2C(Cl)=C(Cl)C3(Cl)C2C13Cl` (configuration not stated) were over 776 µM and over 776 µM.
Taken in the same sequence, the figures for `COc1cc2c(OC)cc1CSCc1sc(C)c(c1Br)CSC2` were over 11.5 µM and over 11.5 µM.
For the compound `CC(=O)Nc1cc2c(cc1[N+](=O)[O-])-c1cc([N+](=O)[O-])c(NC(C)=O)cc1C2=O`, the EC50 was over 200 µM and the IC50 amounted to 25.7 µM.
For `O=C(CC(=O)N1N=C(N(c2ccccc2)c2ccccc2)CC1c1ccccc1)Nc1cccc(Cl)c1` (configuration not stated) the same measures were 25.1 µM and over 200 µM.
For `O=C1NCCCC12CCCNC2=O` the same measures were over 20.9 µM and over 20.9 µM.
As for `Clc1ccc(C2=NOC(C3CCCCC3)C2)cc1` (configuration not stated), the EC50 is over 38 µM and the concentration for half-maximal inhibition (IC50) is over 38 µM.
Regarding `CC(=O)OC1CC2C3(C)CC4O[C@@](C)(O)CC(C)C4[C@@]3(C)CC[C@]23C[C@@]32CC[C@H](OC3OCC(O)C(O)C3O)C(C)(C)C12` (some centres not stated), the EC50 was over 53.7 µM and the IC50 turned out to be 22.4 µM.
In the case of `COC(=O)C(Cc1ccccc1)NC(=O)C(CNC(=O)OCc1ccccc1)C(=O)OCc1ccccc1` (configuration not stated), the EC50 is over 200 µM; the half-maximal inhibitory concentration (IC50) is > 200 µM and 148 µM.
With `N#Cc1c(-c2ccc([N+](=O)[O-])cc2)c(C#N)c(=O)n(NS(=O)(=O)c2ccccc2)c1S`, the EC50 was over 200 µM and the IC50 stood at 16.6 µM.
Turning to `O=c1[nH]c(=O)n(C2CC(O)C(CO)O2)cc1OCc1ccccc1` (configuration not stated), the EC50 was over 200 µM and the IC50 is over 200 µM.
Regarding `CCC1(O)C(=O)OCc2c1cc1n(c2=O)Cc2cc3cc4c(cc3nc2-1)OCO4` (configuration not stated), the EC50 was over 0.1 µM and the IC50 came out at 0.00562 µM.
Taken in the same sequence, the figures for `Cc1ccccc1N1C(N)=C(C#N)C(C#N)(C#N)C1c1ccccc1` (configuration not stated) were over 200 µM and 12 µM.
On to `COC(=O)[C@@H]1C[C@H]([Se]c2ccccc2)CN1C(=O)OCc1ccccc1`, for which the result was inactive.
`Cc1ccc(NCC(=O)N2CC(=O)Nc3ccccc32)cc1`: the EC50 is over 123 µM and the IC50 is over 123 µM.
For the compound `CC(=O)C1=C(O)CC2CC3c4[nH]c5ccccc5c4CCN3CC2C1` (configuration not stated), the EC50 is over 204 µM and the IC50 was 102 µM.
`CCOC(=O)C(NC(=O)c1cccc(Cl)c1)(Nc1cccc(C)c1)C(F)(F)F` (configuration not stated): the EC50 was over 200 µM and the IC50 came to 17.4 µM.
Taken in the same sequence, the figures for `Cc1cnc2c(c1)C(=O)N(c1ccc([N+](=O)[O-])cc1)S2(=O)=O` were over 200 µM and 17.4 µM.
Regarding `Cc1c(-c2ccccc2)c(=O)oc2c3c(ccc12)OC(C)(C)[C@H](OC(=O)C12CCC(C)(C(=O)O1)C2(C)C)[C@@H]3OC(=O)C12CCC(C)(C(=O)O1)C2(C)C` (some centres not stated), the EC50 is over 100 µM and the IC50 is over 100 µM.
Take `COc1cccc(-c2nc(N)c(C#N)c3c2CCS(=O)(=O)c2ccc(C)cc2-3)c1`: the EC50 was over 200 µM and the IC50 was determined as 4.07 µM.
For `O=S(=O)(O)c1ccc(Sc2ccc(S(=O)(=O)O)cc2)cc1` the same measures were over 631 µM and over 631 µM.
For `O=C1CCCCCCCCCCC(=O)C2CCOCCOCCOCCC1Cc1cccc(n1)C2` the same measures were over 138 µM and over 138 µM.
Take `O=[N+]([O-])c1cc(Br)cc2cc(Cl)cnc12`: the outcome was inactive.
On to `Cc1nc(N)nc(N)c1N1CCNCC1`, for which the EC50 is over 200 µM and the IC50 is over 200 µM.
For the compound `Cc1ccc(N(CC(=O)O)S(=O)(=O)c2ccccc2)cc1`, the result was inactive.
For the compound `Cc1ccc(N(C(=O)Nc2ccc(F)c(Cl)c2)C2=NCC(C)S2)cc1` (configuration not stated), the EC50 is over 200 µM and the concentration for half-maximal inhibition (IC50) was 186 µM.
Taken in the same sequence, the figures for `NC(=S)NC/C=C/Cl` were over 200 µM and over 200 µM.
For `CN(C)CCNC(=O)c1ccccc1Nc1c(Cl)cccc1Cl` the same measures were over 200 µM and 39.8 µM.
Taken in the same sequence, the figures for `CN1C(=O)n2c(nc3ccccc32)C(N=[N+]=[N-])(N=[N+]=[N-])C1=O` (configuration not stated) were 70.8 µM and over 100 µM.
